Measurements taken from patent US7741520B2, “Sulfonanilide analogs as selective aromatase modulators (SAMs)” (The Ohio State University Research Foundation, priority 2006, dated 2010).

Experiments:
[1] = tested on: aromatase activity in SK-BR-3 breast cancer cells; test: Aromatase tritiated water-release assay in SK-BR-3 cell lines (first compound set); assay type: cell-based, human; details: SK-BR-3 cells; for IC50: 24 h treatment, five concentrations, each in triplicate, read-out: IC50 (μM), suppression of aromatase activity in SK-BR-3 breast cancer cells
Description: Aromatase Tritiated Water-Release Assay in SK-BR-3 Cell Lines. SK-BR-3 cells were obtained from ATCC (Rockville, Md.). Cell cultures were maintained in phenol red-free custom media (MEM, Earle's salts, 1.5× amino acids, 2× nonessential amino acids, L-glutamine, 1.5× vitamins, Gibco BRL) supplemented with 10% fetal bovine serum (FBS), 2 mM L-glutamine, and 20 mg/L gentamycin. Measurement of aromatase enzyme activity was based on the tritium water release assay. 24 Cells in 100 mm Petri dish were treated with 0.1% DMSO (control), and inhibitors at the indicated concentrations. After 24 h, the media was changed and the cells were incubated with 100 nM [1â-3H]-androst-4-ene-3,17-dione ([…]) for 3 h. Subsequently, the reaction mixture was removed, and proteins were precipitated using 10% trichloroacetic acid at 42° C. for 20 min. After a brief centrifugation, the media was extracted three times with an equal amount of chloroform to extract unused substrate and further dextran-treated charcoal. After centrifugation, a 250-μL aliquot containing the product was counted in 5 mL of liquid scintillation mixture. Results were corrected for blanks and for the cell contents of culture flasks, and results were expressed as picomoles of 3H2O formed per hour incubation time per million live cells (pmol/h/10^6 cells). To determine the amount of cells in each flask, the cells were trypsinized and analyzed using the diphenylamine DNA assay adapted to a 96-well plate. (Natarajan N.; Shambaugh, G. E., 3rd; Elseth K. M.; Haines G. K.; Radosevich J. A. Adaptation of the diphenylamine (DPA) assay to a 96-well plate tissue culture format and comparison with the MTT assay. Biotechniques 1994, 17, 166-171; incorporated herein by reference). IC50 sigmoidal dose-response data were analyzed with Microsoft Excel and the Graphpad Prism (Version 3.0) program.

[2] = tested on: PGE2 production in MDA-MB-231 cells; test: Enzyme immunoassay of PGE2 in MDA-MB-231 cells (COX-2 inhibitory activity); assay type: cell-based, human; details: 25 μM, 24 h (FIG. 4)
Description: Enzyme Immunoassay of PGE2 in MDA-MB-231 Cells. MDA-MB-231 cells were obtained from ATCC (Rockville, Md.). Cell cultures were maintained in phenol red-free custom media (MEM, Earle's salts, 1.5× amino acids, 2× nonessential amino acids, L-glutamine, 1.5× vitamins, Gibco BRL) supplemented with 10% fetal bovine serum (FBS), 2 mM L-glutamine and 20 mg/L gentamycin. To study PGE2 synthesis in cell culture media, experiments were performed in […] Petri dishes. An aliquot of MDA-MB-231 cells (15×10^4 cells) were added to each dish and then incubated overnight to allow the cells to adhere to the dish. After that, cells were serum starved in defined media for 24 h. This step was followed by replacement of media with fresh media containing either vehicle (DMSO) or the indicated concentration of agents. After 24 h incubation at 37° C. the media were collected and the amount of PGE2 was determined by ELISA (Cayman Chemical) according to the protocol provided by the manufacturer. PGE2 concentration was normalized to total protein. Total proteins were extracted from adhered cells by 30 min treatment with 0.5 M NaOH at room temperature and shaking. Protein concentrations in these extracts were determined using a protein assay method (Bio-Rad Laboratories, Inc., Hercules, Calif.).

[3] = tested on: CYP19 mRNA expression in SK-BR-3 cells; test: CYP19 mRNA expression by real-time RT-PCR in SK-BR-3 cells; assay type: cell-based, human; details: 25 μM, 24 h (FIG. 5)
Description: (§1) RNA Extraction. Total RNA was isolated using the TRIzol reagent according to the manufacturer's protocol. Total RNA pellets were dissolved in DNase- and RNase-free water and quantitated using a spectrophotometer. The quality of RNA samples was determined by electrophoresis through agarose gels and staining with ethidium bromide; the 18S and 28S rRNA bands were visualized under ultraviolet light.
(§2) cDNA Synthesis. Isolated total RNA (2 μg) was treated with DNase I Amplification grade, according to the recommended protocol to eliminate any DNA before reverse transcription. Treated total RNA was denatured at 65° C. for 5 min in the presence of 2.5 ng/μL random hexamers and 0.5 mM dNTP mix. The samples were snap-cooled on ice and centrifuged briefly. Complementary DNA (cDNA) was synthesized using Superscript II reverse transcriptase according to the recommended protocol. Briefly, the reactions were conducted in the presence of 1× First-Strand Buffer and 20 mM DTT at 42° C. for 50 min and consequently inactivated at 70° C. for 15 min. The cDNA generated was used as a template in realtime PCR reactions.
Real-Time PCR. Real-time PCR was performed using the Opticon 2 system from MJ Research (Waltham, Mass.). For the CYP19 total gene the PCR reaction mixture consisted of Taqman Universal PCR Master Mix (Applied Biosystems), 600 nM of CYP19 primer (sense: 5′-TGTCTCTTTGTTCTTCATGCTATTTCTC-3′ (SEQ ID NO: 1); antisense: 5′-TCACCAATAACAGTCTGGATTTCC-3′) (SEQ ID NO: 2); 250 nM Taqman probe (6FAM 5′-TGCAAAGCACCCTAATGTTGAAGAGGCAAT-3′TAMRA) (SEQ ID NO: 3) (Invitrogen), 18S rRNA (Applied Biosystems, Foster City, Calif.), and 2.0 μL of each RT sample in a final volume of 20 μL. The Taqman probe was designed to anneal to a specific sequence of the aromatase gene between the forward and the reverse primers. Cycling conditions were 50° C. for 2 mm and 95° C. for 10 mm, followed by 50 cycles at 95° C. for 15 s and 60° C. for 1 mm.
as §1, with “extraction.” for “Extraction.”, “DNase,” for “DNase- and”
as §2, with “synthesis.” for “Synthesis.”, “real-time” for “realtime”
Real-time PCR. Real-time PCR was performed using the Opticon™ 2 system from MJ Research (Waltham, Mass.). For the CYP19 total gene the PCR reaction mixture consisted of Taqman® Universal PCR Master Mix (Applied Biosystems), 600 nM of CYP19 primer (sense: 5′-TGTCTCTTTGTTCTTCATGCTATTTCTC-3′ (SEQ ID NO: 1); antisense: 5′-TCACCAATAACAGTCTGGATTTCC-3′) (SEQ ID NO: 2); 250 nM Taqman probe (6FAM 5′-TGCAAAGCACCCTAATGTTGAAGAGGCAAT-3′TAMRA) (SEQ ID NO: 3) (Invitrogen), and 2.0 μL of each cDNA sample in a final volume of 20 μL. […]

[4] = tested on: aromatase activity in SK-BR-3 breast cancer cells; test: Aromatase tritiated water-release assay in SK-BR-3 cell lines (first compound set); assay type: cell-based, human; details: SK-BR-3 cells

Row | melting point | SMILES | IC50 [1] | PGE2 production (COX-2 inhibitory activity) [2] | CYP19 gene expression relative to control [3] | time-course of suppression of aromatase activity ([4]; 2 μM) | time-course of suppression of aromatase activity ([4]; 10 μM) | increase of aromatase activity after removing the drug ([1]; letrozole 10 nM, after removal of drug) | time-course of suppression of aromatase activity ([4]; 10 nM)
1 | 89 to 90 °C | CCC(CC)Oc1cc([N+](=O)[O-])ccc1N(C)S(C)(=O)=O [Compound 22, N-Methyl-N-(2-(1-ethyl-propyloxy-4-nitrophenyl))methanesulfonamide] | 0.23 µM | did not show any inhibitory activity | significantly decreased CYP19 gene expression |  |  |  | 
2 | 100 to 102 °C | CCC(CC)Oc1cc([N+](=O)[O-])ccc1NS(C)(=O)=O [Compound 13, N-(2-(1-Ethyl-propyloxy-4-nitrophenyl))methanesulfonamide] | 0.3 µM | significantly decrease in PGE2 production | significantly decreased CYP19 gene expression |  |  |  | 
3 |  | CS(=O)(=O)Nc1ccc([N+](=O)[O-])cc1OC1CCCCC1 [NS-398, N-(2-Cyclohexyloxy-4-nitrophenyl)methanesulfonamide, reference compound] | 0.68 µM | significantly decrease in PGE2 production | significantly decreased CYP19 gene expression | prolonged reversible suppression of aromatase |  |  | 
4 |  | C[C@@H]1C[C@@H]([C@H](O)CC2CC(=O)NC(=O)C2)C(=O)[C@@H](C)C1 [Cycloheximide] |  |  |  |  | showed similar results |  | 
5 |  | N#Cc1ccc(C(c2ccc(C#N)cc2)n2cncn2)cc1 [letrozole, reference compound] |  |  |  |  |  | 150% | acute inhibition

Row | SMILES | melting point | IC50 [1] | PGE2 production (COX-2 inhibitory activity) [2] | CYP19 gene expression relative to control [3] | time-course of suppression of aromatase activity ([4]; 2 μM) | time-course of suppression of aromatase activity ([4]; 10 μM) | increase of aromatase activity after removing the drug ([1]; letrozole 10 nM, after removal of drug) | time-course of suppression of aromatase activity ([4]; 10 nM)
6 | CN(c1ccc([N+](=O)[O-])cc1OC1CCCCC1)S(C)(=O)=O [Compound 17, N-Methyl-N-(2-cyclohexyloxy-4-nitrophenyl)methanesulfonamide] | 129 to 132 °C | 0.47 µM | did not show any inhibitory activity | significantly decreased CYP19 gene expression | prolonged reversible suppression of aromatase |  |  | 
